The subject of test [1] is parental UACC-257X2.2 cells. Put plainly: In vitro cell proliferation (CellTiter-Glo, five days). The class given is cell-based. Conditions: parental line. Here is the method: (§1) In vitro cell proliferation of the cell lines in the presence of the immunoconjugates was assessed. Cells were plated at 1,500 cells per well in 50 μL of normal growth medium in 96-well clear-bottom plates. Twenty-four hours later, an additional 50 μL of culture medium with serial dilutions of immunoconjugates were added to triplicate wells. Five days later, cell survival was determined using CellTiter-Glo Luminescent Cell Viability Reagent (G7572, Promega Corporation, Madison, Wis.) using an EnVision 2101 Mutilabel Reader (Perkin-Elmer, Waltham, Mass.).

In test [2] the test system is in vivo derived resistant UACC-257X2.2 cells. The description is as above. Type of test: cell-based. Conditions: in vivo derived resistant line. Here is the method: Tumor #359 was harvested and the cells were dissociated for growth in vitro (referred to herein as in vivo-derived resistant UACC-257X2.2 cells).
as §1

Test [3] relates to in vitro derived resistant UACC-257X2.2 cells. The description is as above. Type of test: cell-based. Conditions: in vitro derived resistant line. Here is the method:
For resistance developed in vitro, UACC-257X2.2 cells were adapted to increasing concentrations of anti-ETBR-vc-MMAE in culture dishes over the course of two months.
as §1

Test [4] has as its system PC3 cells stably expressing PMEL17. Put plainly: Inhibition of in vitro cell proliferation (CellTiter-GloII). Type of test: cell-based. Here is the method:
Proliferation in the presence of 17A9 ADC was assessed using PMEL17+ melanoma cells and PC3 cells stably expressing PMEL17 plated at 2,000 per well in 50 μL of normal growth medium in 96-well clear-bottom plates (PerkinElmer). Twenty-four hours later, an additional 50 μL of culture medium with serial dilutions of 17A9 ADC were added to triplicate wells. Three or five days later, cell numbers were determined using CellTiter-GloII (Promega Corp.) and with an EnVision 2101 Mutilabel Reader (PerkinElmer).

Test [5] deals with vector control PC3 parental cell line. The description is as above. Type of test: cell-based. Conditions: out to 10 μg/ml of ADC.
Test [6] concerns normal human melanocytes. In words: Toxicity of anti-PMEL17 ADC in normal melanocytes (CellTiter-GloII, five days). The class given is cell-based. Conditions: versus SK-MEL-5 and SK-MEL-23, five days. Here is the method: Finally, SK-MEL-5 and SK-MEL-23 melanoma cells, or normal human melanocytes, were incubated with serial dilutions of the 17A9 ADC and five days later cell numbers were determined using CellTiter-GloII.

In test [7] the test system is SK-MEL-23 melanoma cell line xenograft. Put plainly: SK-MEL-23 melanoma cell line xenograft. The class given is in vivo, mice. To be noted: single IV injection, 6 mg/kg. Here is the method: The efficacy of the anti-PMEL17 ADCs was investigated using an SK-MEL-23 melanoma cell line xenograft model. Female CRL Nu/Nu mice from Charles River Laboratories were inoculated subcutaneously in the dorsal right flank with five million SK-MEL-23 cells in HBSS with Matrigel. […] When tumor volumes reached ˜200 mm^3 (day 0), animals were randomized into groups of 10 each and administered a single IV injection of 2 or 6 mg/kg 17A9 ADC. MMAE conjugated to anti-GP120 antibody was used as a control. Tumor volumes were measured twice per week until study end. Tumor volumes were determined using digital calipers (Fred V. Fowler Company, Inc.) using the formula (L×w×W)/2. Tumor growth inhibition (% TGI) was calculated as the percentage of the area under the fitted curve (AUC) for the respective dose group per day in relation to the vehicle, such that % TGI=100×[1−(AUCtreatment/day)/(AUCvehicle/day)]. Curve fitting was applied to Loge transformed individual tumor volume data using a linear mixed-effects model using the R package nlme, version 3.1-96 in R v2.10.1.

Test [8] concerns human PMEL17. In words: Monoclonal antibody epitope mapping with PMEL17 deletion mutants (immunoblot, FACS). The class given is binding. To be noted: N-terminal deletions by immunoblot; C-terminal deletions in 293 cells by FACS. Here is the method: All the constructs for epitope mapping were made by PCR amplification of each fragment and subcloning into either pRKtkneo vector with an N-terminal gD tag, or pRKtkneo vector with an N-terminal gD tag and a C-terminal GPI anchor. Transfections were performed using FuGene 6 (Roche Applied Science), and empty vector was used as control. Full-length human PMEL17 was subcloned into pRKtkneo vector with an N-terminal gD tag.
A signal sequence and a gD epitope tag were fused to the N-terminal sequence of a series of deletion mutants, which were then expressed in mammalian cells and the lysates analyzed by immuoblotting for reactivity with 17A9 or 77E6. The N-terminal deletions tested included Δ100, Δ255, Δ292, Δ315, Δ444, Δ515, and Δ567.
In addition, C-terminal deletions with an N-terminal gD tag and a C-terminal GPI anchor were transiently transfected into 293 cells and analyzed for antibody binding by FACS. The C-terminal deletions tested included PMEL1725-125, PMEL1725-105, PMEL1725-85, PMEL1725-65, and PMEL1725-45. Finally, a PMEL17 fragment comprising the region from amino acid 515 through the transmembrane domain, but lacking the cytoplasmic region (“Δ515-C”) and a PMEL17 fragment comprising just the cytoplasmic domain with an N-terminal gD tag and a C-terminal GPI anchor were analyzed by immuoblotting for reactivity with 77E6.

Setting [9] is: linker-drug without antibody, read-out: EC50.

Where two headings read alike, the source gives them in different places.

As to MC-PNU-159682, the results for the EC50 in test [1] (setting [9]), in test [2] (setting [9]) and in test [3] (setting [9]) were 0.18 nM, 0.133 nM and 0.15 nM, respectively.
For MC-vc-PAB-MMAE the same measures were 0.28 nM, 0.77 nM and 3.5 nM.
For MC-vc-PAB-PNU-159682 the same measures were 2 nM, 4.2 nM and 6.6 nM.

B1: 17A9 ADC (conjugate)
VH: EVQLQQSGPELVKPGASMKISCKSSGYSFTRYTMNWVKQSHGKNLEWIGVINPYNGGTVYNQKFKGKATLTVDKSSSTAYMELLSLTSEDSAVYYCARTDYDGYAMDYWGQGTSVTVSS
VL: DVQITQSPSYLAASPGETITINCRATKSISKYLAWYQEQPGKTNNLLIYSGSTLQSGIPSRFSGSGSGTDFTLTISSLEPEDFAMYYCQQHNEYPYTFGSGTKLEIK
For B1, the values for the cell killing result in test [4] and in test [5] were “effectively killed” and “no killing”, respectively. In addition, in test [6], the “IC50 on normal melanocytes relative to melanoma cell lines” value is ~100 fold. For the same molecule, the “effect on tumor growth” value in test [7] was “retard tumor growth for several weeks”.

B2: anti-PMEL17-vc-MMAE: anti-PMEL17 ADC with protease-cleavable val-cit linker and MMAE (17A9 or ch17A9 with MC-vc-PAB-MMAE) (conjugate)
VH: B1 VH
VL: B1 VL
In the case of B2, the EC50 amounted to 0.033 µg/mL in test [1] (immunoconjugates), 0.119 µg/mL in test [2] (immunoconjugates) and 0.764 µg/mL in test [3] (immunoconjugates).

B3: 14C10: anti-PMEL17 antibody that binds to the same deletion fragments as 17A9 (antibody, V domains shown)
VH: QVTLKESGPGILQPSQTLSLTCSFSGFSLSTSAMGIGWIRQPSGKGLEWLAHIWWDDDKRYNPALKSRLTISKDTSRNQVFLKIASVDTADTATYFCARIDGIYDGSFYAMDYWGQGTSVTVSS
VL: DIVLTQSPASLAVSLGQRATISCRASESVDSYGNSFMHWYQQKPGQPPKLLIYRASNLESGIPARFSGSGSRTDFTLTINPVEADDVANYYCQQSNEDYTFGGGTKLEIK
For B3, the “binding to PMEL17 deletion mutants” value in test [8] is given as “binds to the same deletion fragments as 17A9”.

Source of the values: patent publication US10196454B2, “Anti-PMEL17 antibodies and immunoconjugates” (GENENTECH, INC., priority 2012, dated 2019).
